Source: patent publication US8415469B2, “Compounds and methods for kinase modulation, and indications therefor” (Plexxikon Inc., priority 2005, dated 2013)

Legend:
Format in all cases: biochemical
B-Raf V600E = target: T1, B-Raf V600E (Homo sapiens, UniProt P15056, V600E); experiment: AlphaScreen kinase assay, B-Raf V600E; settings: read-out: IC50, activity toward kinase B-Raf V600E
T1 construct: P4254. pFastBacBD-CDC37 BRAF D437-K722-X, V600E; His6 with pFastBac HT leader (TEV site) (N); made in house; host or cells: Sf9 (baculovirus; chaperone CDC37 co-expressed)
T1 sequence (P15056 with tags, fused parts or gaps V600E): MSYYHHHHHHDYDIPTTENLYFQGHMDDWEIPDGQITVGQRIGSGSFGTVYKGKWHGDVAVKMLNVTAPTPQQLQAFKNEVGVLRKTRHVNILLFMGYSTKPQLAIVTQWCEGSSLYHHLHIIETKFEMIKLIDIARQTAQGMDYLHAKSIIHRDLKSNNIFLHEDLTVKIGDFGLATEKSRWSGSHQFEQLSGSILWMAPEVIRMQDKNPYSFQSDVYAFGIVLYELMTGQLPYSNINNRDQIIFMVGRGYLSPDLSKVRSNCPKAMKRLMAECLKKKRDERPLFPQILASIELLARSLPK

B-Raf = target: T2, B-Raf (Homo sapiens, UniProt P15056); experiment: AlphaScreen kinase assay, B-Raf; settings: read-out: IC50, activity toward kinase B-Raf
T2 construct: purchased Upstate Biotechnology
T2 sequence (P15056 whole entry): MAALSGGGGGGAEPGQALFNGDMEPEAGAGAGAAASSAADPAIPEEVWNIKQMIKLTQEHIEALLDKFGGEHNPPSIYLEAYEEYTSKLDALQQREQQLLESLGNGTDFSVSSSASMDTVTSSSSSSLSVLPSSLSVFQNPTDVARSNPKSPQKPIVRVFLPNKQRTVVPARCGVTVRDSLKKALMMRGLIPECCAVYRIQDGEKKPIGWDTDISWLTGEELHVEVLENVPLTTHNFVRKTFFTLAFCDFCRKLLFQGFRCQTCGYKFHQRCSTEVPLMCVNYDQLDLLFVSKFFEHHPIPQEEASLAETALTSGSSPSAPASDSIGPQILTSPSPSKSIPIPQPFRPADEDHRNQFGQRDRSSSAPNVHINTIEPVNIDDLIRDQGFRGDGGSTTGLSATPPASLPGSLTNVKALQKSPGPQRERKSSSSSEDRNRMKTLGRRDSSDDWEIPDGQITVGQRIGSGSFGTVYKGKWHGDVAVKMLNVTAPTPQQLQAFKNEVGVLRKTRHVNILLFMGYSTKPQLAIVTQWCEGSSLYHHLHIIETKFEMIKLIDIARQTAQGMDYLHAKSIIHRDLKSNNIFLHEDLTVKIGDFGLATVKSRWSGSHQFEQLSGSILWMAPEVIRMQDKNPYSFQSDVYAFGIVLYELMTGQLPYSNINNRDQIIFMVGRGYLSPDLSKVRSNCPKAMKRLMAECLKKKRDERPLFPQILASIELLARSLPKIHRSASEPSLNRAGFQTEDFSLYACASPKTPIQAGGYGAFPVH

Src = target: T3, Src (Homo sapiens, UniProt P12931); experiment: AlphaScreen kinase assay, Src; settings: read-out: IC50, activity toward kinase Src
T3 construct: P1144. pET-N6 BI-PTP SRC V86-L536-X; made in house
T3 sequence (P12931 with tags, fused parts or gaps): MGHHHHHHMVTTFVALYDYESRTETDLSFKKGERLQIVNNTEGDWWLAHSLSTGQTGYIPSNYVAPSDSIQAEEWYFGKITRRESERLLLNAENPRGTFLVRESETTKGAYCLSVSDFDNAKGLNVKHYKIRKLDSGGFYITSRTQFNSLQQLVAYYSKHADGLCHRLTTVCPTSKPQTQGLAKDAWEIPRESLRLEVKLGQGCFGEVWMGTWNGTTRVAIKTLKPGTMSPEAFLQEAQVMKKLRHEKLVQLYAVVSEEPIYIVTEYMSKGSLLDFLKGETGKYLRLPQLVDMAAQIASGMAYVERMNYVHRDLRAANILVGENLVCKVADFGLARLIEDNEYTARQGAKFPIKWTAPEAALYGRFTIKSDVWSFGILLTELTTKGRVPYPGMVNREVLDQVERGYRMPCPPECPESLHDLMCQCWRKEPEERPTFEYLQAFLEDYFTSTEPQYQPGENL

Jnk3 = target: T4, Jnk3 (Homo sapiens, UniProt P53779); experiment: AlphaScreen kinase assay, Jnk3; settings: read-out: IC50, activity toward kinase Jnk3
T4 construct: purchased Upstate Biotechnology
T4 sequence (P53779 whole entry): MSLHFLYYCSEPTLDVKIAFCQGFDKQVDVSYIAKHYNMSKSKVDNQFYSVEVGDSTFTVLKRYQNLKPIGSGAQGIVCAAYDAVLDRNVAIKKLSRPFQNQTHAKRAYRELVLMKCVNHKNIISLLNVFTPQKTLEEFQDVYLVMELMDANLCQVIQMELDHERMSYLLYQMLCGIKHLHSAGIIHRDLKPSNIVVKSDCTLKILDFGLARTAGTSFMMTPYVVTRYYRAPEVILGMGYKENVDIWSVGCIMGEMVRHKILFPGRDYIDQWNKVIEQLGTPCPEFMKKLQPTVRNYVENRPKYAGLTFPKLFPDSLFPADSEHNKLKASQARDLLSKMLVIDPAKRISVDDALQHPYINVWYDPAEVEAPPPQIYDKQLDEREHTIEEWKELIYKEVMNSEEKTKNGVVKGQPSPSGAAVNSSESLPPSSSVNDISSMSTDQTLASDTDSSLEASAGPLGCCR

Jnk1 = target: T5, Jnk1 (Homo sapiens, UniProt P45983); experiment: AlphaScreen kinase assay, Jnk1; settings: read-out: IC50, activity toward kinase Jnk1
T5 construct: purchased Upstate Biotechnology
T5 sequence (P45983 whole entry): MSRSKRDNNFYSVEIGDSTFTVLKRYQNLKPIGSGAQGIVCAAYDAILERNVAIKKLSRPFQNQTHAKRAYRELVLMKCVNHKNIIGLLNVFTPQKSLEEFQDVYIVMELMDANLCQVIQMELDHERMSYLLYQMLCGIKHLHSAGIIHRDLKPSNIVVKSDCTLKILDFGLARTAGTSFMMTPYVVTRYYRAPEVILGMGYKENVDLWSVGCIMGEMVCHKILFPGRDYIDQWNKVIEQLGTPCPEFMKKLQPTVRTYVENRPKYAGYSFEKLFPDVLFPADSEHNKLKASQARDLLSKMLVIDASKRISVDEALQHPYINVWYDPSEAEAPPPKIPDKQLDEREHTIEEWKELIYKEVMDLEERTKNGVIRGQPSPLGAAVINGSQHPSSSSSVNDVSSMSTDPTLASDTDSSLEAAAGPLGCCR

Kit = target: T6, Kit (Homo sapiens, UniProt P10721); experiment: AlphaScreen kinase assay, Kit; settings: read-out: IC50, activity toward kinase Kit
T6 construct: P1332.N6 BI PTP KIT M552-K948-X COD; His6 (N); made in house; host or cells: E. coli (PTP1B co-expressed)
T6 sequence (P10721 with tags, fused parts or gaps): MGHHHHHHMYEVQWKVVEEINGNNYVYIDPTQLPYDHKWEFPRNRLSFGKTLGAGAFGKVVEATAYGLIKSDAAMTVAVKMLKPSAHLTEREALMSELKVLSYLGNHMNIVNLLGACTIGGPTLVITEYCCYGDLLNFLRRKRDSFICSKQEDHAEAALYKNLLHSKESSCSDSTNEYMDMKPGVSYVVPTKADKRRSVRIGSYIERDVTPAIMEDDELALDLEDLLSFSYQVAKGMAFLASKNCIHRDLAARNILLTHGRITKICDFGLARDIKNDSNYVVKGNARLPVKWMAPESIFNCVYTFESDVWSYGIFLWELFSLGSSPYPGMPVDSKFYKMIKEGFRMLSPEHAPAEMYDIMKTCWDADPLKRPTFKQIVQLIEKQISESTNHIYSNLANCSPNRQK

FGFR1 = target: T7, FGFR1 (Homo sapiens, UniProt P11362, C488A/C584S); experiment: AlphaScreen kinase assay, FGFR1; settings: read-out: IC50, activity toward kinase FGFR
T7 construct: P1351.pET N6 BI-PTP FGFR A458-E765-X C488A, C584S; made in house; host or cells: E. coli (PTP1B co-expressed)
T7 sequence (P11362 458-765 C488A/C584S): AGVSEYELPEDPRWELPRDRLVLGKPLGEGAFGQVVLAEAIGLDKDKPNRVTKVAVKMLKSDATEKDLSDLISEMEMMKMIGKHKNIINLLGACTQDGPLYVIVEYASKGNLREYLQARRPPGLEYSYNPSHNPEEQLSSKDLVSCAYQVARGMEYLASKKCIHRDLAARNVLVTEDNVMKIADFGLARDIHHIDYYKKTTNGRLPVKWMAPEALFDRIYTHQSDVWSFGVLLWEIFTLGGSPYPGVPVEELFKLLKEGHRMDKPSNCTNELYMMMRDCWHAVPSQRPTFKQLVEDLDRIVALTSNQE

Abl = target: T8, Abl (Homo sapiens, UniProt P00519); experiment: AlphaScreen kinase assay, Abl; settings: read-out: activity toward kinase Abl, IC50
T8 construct: P1121. pET-SPEC BI-PTP Abl G227-V515-X; His6 (N); made in house; host or cells: E. coli (PTP1B co-expressed)
T8 sequence (P00519 with tags, fused parts or gaps): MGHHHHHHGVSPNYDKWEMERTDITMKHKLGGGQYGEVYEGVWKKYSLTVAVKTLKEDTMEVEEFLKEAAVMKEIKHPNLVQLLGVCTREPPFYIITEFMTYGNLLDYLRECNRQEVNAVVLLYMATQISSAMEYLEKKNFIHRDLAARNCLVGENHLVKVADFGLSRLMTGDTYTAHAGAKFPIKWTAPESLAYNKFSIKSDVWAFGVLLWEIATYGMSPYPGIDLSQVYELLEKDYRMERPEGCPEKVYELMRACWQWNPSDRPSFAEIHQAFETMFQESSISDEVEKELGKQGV
Outline: (§1)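 AlphaScreen read-out: acceptor-bead emission falls when kinase is inhibited. Biotin-peptide substrate captured on streptavidin donor beads, phospho-specific antibody on acceptor beads. 8 concentrations, 1:3 dilution series, from 20 mM DMSO stocks.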

Jnk2 = target: T9, Jnk2 (Homo sapiens, UniProt P45984); experiment: AlphaScreen kinase assay, Jnk2; settings: read-out: IC50, activity toward kinase Jnk2
T9 construct: purchased Roche Protein Expression Group (Indianapolis, IN)
T9 sequence (P45984 whole entry): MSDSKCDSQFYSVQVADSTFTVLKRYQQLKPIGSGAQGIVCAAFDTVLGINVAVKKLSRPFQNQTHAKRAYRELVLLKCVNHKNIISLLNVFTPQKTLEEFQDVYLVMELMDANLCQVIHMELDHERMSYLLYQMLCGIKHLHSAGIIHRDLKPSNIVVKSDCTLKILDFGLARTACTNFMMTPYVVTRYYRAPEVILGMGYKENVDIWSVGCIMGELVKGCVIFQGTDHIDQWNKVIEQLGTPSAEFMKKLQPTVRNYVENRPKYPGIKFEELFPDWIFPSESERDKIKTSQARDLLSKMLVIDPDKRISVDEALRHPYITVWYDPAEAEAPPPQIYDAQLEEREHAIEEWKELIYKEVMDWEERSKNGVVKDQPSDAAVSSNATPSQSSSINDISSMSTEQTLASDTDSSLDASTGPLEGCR
Outline: as §1

Syk = Syk (Homo sapiens, UniProt P43405); experiment: AlphaScreen kinase assay, Syk; settings: read-out: IC50, activity toward kinase Syk
Description: AlphaScreen assay was used to screen additional kinases. The assay is similarly dependent on the phosphorylation of a peptide substrate. In this assay, an antibody that recognizes phosphorylated substrate is bound to an acceptor bead. The peptide substrate is attached to biotin, which binds to a donor head that contains streptavidin. Thus phosphorylated substrate is bound by antibody and streptavidin, bringing the donor and acceptor heads into close proximity when kinase is not inhibited. The donor produces singlet oxygen which results in emission from the acceptor when they are in close proximity. Conversely, when kinase is inhibited, the donor and acceptor beads are not associated and the emission from the acceptor is reduced.
AlphaScreen assays were done using compounds dissolved in DMSO to a concentration of 20 mM. The compounds were diluted accordingly to the desired final concentrations in each sample well, using 1:3 serial dilution for a total of 8 concentration points.

Flt4 = target: T10, Flt4 (Homo sapiens, UniProt P35916); experiment: AlphaScreen kinase assay, Flt4; settings: read-out: IC50, activity toward kinase Flt4
T10 construct: purchased ProQinase GmbH (Freiburg, Germany)
Outline: as §1

Ret = target: T11, Ret (Homo sapiens, UniProt P07949); experiment: AlphaScreen kinase assay, Ret; settings: read-out: IC50, activity toward kinase Ret
T11 construct: P1378.pET-SF BI-PTP RET H661-R1012 HIS; made in house
T11 sequence (P07949 with tags, fused parts or gaps): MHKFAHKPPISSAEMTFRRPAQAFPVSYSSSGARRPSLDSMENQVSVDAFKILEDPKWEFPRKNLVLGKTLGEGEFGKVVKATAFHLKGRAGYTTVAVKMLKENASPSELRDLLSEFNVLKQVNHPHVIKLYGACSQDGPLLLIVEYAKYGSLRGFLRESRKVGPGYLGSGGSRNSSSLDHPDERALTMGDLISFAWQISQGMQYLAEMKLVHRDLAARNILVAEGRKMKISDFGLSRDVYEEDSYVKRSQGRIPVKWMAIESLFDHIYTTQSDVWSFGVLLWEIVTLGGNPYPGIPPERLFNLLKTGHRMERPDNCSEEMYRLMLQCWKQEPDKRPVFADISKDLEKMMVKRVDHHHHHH

MAPKAPK2 = target: T12, MAPKAPK2 (Homo sapiens, UniProt P49137); experiment: Z'-Lyte FRET kinase assay (Invitrogen), MAPKAPK2; settings: read-out: IC50, activity toward kinase MAPKAPK2
T12 construct: purchased Invitrogen (assay run by Invitrogen)
Description: The effect of potential modulators of kinase activity can be measured in a variety of different assays known in the art. For example, direct radiometric, indirect FRET or AlphaScreen assays may be used to assess the level of phosphorylation of a substrate in the presence of test compounds in order to determine the inhibitory affect of the compound on the kinase. Invitrogen (Carlsbad, Calif.) uses a FRET based assay for Btk, EGFR, EphB2, Flt3, lrak4, Kdr, MAP2K1, MAPKAPK2, PDGFRB, PKC theta, Stk6 and Yes. For these assays, compounds of the invention were screened by Invitrogen using Z′-Lyte™ kinase assay.
Briefly, the Invitrogen kinase assay involves use of a specific peptide substrate optimized for each kinase, containing a fluorophore at each end that make up the FRET pair. The peptide sensitivity to proteolytic cleavage depends on phosphorylation of the peptide. Non-phosphorylated peptide is cleaved by a protease while peptide phosphorylated by the kinase is not cleaved. Cleavage of the peptide disrupts the FRET between the donor (coumarin) and acceptor (fluorescein) fluorophores, resulting in an increase in the ratio of donor emission to acceptor emission. The emission ratio of coumarin to fluorescein is used to assess the reaction progress. The extent of phosphorylation is determined from the emission ratio, which is low when the kinase is active (phosphorylated peptide is not cleaved, FRET pair connected) or higher for inhibited kinase (non-phosphorylated peptide is cleaved, FRET pair separated). Thus, the assay involves a kinase reaction in the presence of varying concentrations of a given compound, a development reaction with site specific protease, and detection of the fluorescent emission ratio of coumarin and fluorscein. […] Reaction conditions for each kinase are determined to provide optimal reaction times, incubation temperature, kinase and ATP concentrations. Test samples are made up in 1× kinase buffer (50 mM HEPES pH 7.5, 50 mM MgCl2, 5 mM EGTA, 0.05% BRIJ-35) and compound at desired concentration prepared in DMSO such that the final DMSO is 1%. […] Typically, assay plates are prepared to 10 μl final volume per sample, adding 2.5 μl of compound at 4× the desired concentration in 4% DMSO (serial dilution of compound provides concentration curve), 5 μl of the desired kinase mixed with Z′-LYTE™ peptide substrate (2× in 2× kinase buffer, final peptide at 2 μM), and 2.5 μl of 4×ATP solution. All kinase except for MAP2K1 were at 10 μM ATP in the kinase reaction, while MAP2K1 was at 100 μM. Samples are mixed and the kinase reaction is incubated 1 hour at room temperature, after which 5 μl of development solution is added and mixed. After incubation for another 1 hour at room temperature, 5 μl of stop reagent is added to each sample and mixed. The fluorescence signals are measured to determine the emission ratio.

Met = target: T13, Met (Homo sapiens, UniProt P08581); experiment: AlphaScreen kinase assay, Met; settings: read-out: IC50, activity toward kinase Met
T13 construct: P1818.pETN6 BI-PTP MET G1056-G1364-X WT; His6 (N); made in house; host or cells: E. coli (PTP1B co-expressed)
Outline: as §1

Fms = target: T14, Fms (Homo sapiens, UniProt P07333); experiment: AlphaScreen kinase assay, Fms; settings: read-out: IC50, activity toward kinase Fms
T14 construct: purchased Upstate Biotechnology

Kdr = target: T15, Kdr (Homo sapiens, UniProt P35968); experiment: Z'-Lyte FRET kinase assay (Invitrogen), Kdr; settings: read-out: IC50, activity toward kinase Kdr
T15 construct: purchased Invitrogen (assay run by Invitrogen)
T15 sequence (P35968 20-1356): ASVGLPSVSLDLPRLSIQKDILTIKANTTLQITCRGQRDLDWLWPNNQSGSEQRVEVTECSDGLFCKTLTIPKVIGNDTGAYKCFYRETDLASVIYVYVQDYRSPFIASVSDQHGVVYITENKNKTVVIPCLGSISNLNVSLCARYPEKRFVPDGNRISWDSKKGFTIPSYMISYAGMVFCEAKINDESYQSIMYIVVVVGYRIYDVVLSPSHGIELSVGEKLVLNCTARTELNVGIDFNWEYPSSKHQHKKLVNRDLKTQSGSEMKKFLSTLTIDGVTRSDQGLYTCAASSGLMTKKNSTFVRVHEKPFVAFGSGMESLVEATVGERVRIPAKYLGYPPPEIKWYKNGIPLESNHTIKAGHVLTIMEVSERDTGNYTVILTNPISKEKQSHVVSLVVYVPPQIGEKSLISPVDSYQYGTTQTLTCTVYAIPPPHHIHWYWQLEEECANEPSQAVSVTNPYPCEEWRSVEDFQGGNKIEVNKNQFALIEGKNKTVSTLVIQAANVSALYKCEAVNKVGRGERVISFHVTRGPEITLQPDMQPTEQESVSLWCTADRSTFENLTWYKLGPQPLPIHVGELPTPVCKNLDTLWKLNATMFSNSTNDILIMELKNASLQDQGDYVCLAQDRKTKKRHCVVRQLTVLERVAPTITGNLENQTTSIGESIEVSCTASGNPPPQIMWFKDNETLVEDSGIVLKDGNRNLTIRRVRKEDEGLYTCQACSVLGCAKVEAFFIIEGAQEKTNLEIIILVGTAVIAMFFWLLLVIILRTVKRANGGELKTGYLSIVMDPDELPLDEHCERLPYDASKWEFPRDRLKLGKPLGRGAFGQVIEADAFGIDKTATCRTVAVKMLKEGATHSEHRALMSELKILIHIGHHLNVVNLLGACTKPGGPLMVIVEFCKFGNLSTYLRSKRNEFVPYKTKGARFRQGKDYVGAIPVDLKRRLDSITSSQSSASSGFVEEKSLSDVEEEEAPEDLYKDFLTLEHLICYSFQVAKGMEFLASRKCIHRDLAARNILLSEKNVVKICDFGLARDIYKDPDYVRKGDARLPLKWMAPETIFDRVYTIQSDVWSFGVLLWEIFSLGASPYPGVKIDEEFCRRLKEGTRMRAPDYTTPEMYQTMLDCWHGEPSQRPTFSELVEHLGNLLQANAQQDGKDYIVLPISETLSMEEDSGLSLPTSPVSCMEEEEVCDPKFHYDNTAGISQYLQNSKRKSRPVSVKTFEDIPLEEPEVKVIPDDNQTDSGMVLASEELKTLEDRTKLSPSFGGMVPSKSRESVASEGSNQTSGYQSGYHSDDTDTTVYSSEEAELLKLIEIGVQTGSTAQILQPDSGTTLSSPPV

Stk6 = target: T16, Stk6 (Homo sapiens, UniProt O14965); experiment: Z'-Lyte FRET kinase assay (Invitrogen), Stk6; settings: read-out: IC50, activity toward kinase Stk6
T16 construct: purchased Invitrogen (Carlsbad, Calif.), screening service
T16 sequence (O14965 1-403): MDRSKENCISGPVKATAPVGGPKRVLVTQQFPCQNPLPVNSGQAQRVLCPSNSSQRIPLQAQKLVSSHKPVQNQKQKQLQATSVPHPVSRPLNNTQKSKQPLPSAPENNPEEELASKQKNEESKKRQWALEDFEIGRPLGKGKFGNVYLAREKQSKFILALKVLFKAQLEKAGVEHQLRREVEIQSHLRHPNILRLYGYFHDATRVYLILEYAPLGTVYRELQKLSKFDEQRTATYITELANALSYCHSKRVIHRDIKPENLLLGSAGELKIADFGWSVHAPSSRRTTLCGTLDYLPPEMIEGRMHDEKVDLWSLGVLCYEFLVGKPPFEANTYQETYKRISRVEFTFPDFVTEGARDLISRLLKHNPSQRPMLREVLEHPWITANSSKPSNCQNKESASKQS

Btk = target: T17, Btk (Homo sapiens, UniProt Q06187); experiment: Z'-Lyte FRET kinase assay (Invitrogen), Btk; settings: read-out: IC50, activity toward kinase Btk
T17 construct: purchased Invitrogen (assay run by Invitrogen)

Fak = target: T18, Fak (Homo sapiens, UniProt Q05397); experiment: AlphaScreen kinase assay, Fak; settings: read-out: IC50, activity toward kinase Fak
T18 construct: P1358.pFastBacHtb FAK S411-Q686-X; His6 with pFastBacHTb leader (TEV site) (N); made in house; host or cells: Sf9 (baculovirus)

Flt1 = target: T19, Flt1 (Homo sapiens, UniProt P17948); experiment: AlphaScreen kinase assay, Flt1; settings: read-out: IC50, activity toward kinase Flt1
T19 construct: P1826.pETN6 BI-PTP FLT1 M799-D1165-X WT; His6 (N); made in house; host or cells: E. coli (PTP1B co-expressed)
T19 sequence (P17948 with tags, fused parts or gaps): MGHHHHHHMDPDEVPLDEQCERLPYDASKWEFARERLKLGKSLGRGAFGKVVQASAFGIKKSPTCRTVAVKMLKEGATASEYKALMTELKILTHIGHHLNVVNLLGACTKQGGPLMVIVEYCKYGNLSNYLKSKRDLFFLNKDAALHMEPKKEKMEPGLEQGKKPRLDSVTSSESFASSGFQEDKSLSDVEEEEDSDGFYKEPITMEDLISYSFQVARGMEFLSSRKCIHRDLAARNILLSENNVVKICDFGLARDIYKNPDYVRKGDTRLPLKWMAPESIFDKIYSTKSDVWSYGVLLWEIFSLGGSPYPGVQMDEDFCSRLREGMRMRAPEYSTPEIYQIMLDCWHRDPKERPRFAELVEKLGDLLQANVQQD

Measured: IC50

Cc1ccccc1C(=O)c1c[nH]c2ncc(-c3cccc(N)c3)cc12 [Compound P-0599]
not listed: MAPKAPK2 | Met | Fms | Kdr | Stk6 | Btk | Fak | Flt1
≤ 10 µM: all other assays above

COc1cccc(C(=O)c2c[nH]c3ncc(-c4ccc[nH]4)cc23)c1 [Compound P-0151]
≤ 10 µM: MAPKAPK2

COc1cccc(C(=O)c2c[nH]c3ncc(-c4cccc(/C=C/C(=O)O)c4)cc23)c1 [Compound P-0054]
not listed: Src | Flt4 | MAPKAPK2
≤ 10 µM: all other assays above

O=C(c1cccc(O)c1)c1c[nH]c2ncc(-c3ccsc3)cc12 [Compound P-0448]
not listed: MAPKAPK2 | Met | Fms | Stk6 | Btk | Fak
≤ 10 µM: all other assays above
